According to patent publication US7365088B2, “Indazole-derivatives as factor Xa inhibitors” (Sanofi-Aventis Deutschland GmbH, priority 2003, dated 2008):

These molecules were tested against human factor Xa (Homo sapiens, UniProt P00742) (assay: Factor Xa assay (chromogenic, substrate S-2765)).
Chain of human factor Xa (P00742 235-488 limits assumed): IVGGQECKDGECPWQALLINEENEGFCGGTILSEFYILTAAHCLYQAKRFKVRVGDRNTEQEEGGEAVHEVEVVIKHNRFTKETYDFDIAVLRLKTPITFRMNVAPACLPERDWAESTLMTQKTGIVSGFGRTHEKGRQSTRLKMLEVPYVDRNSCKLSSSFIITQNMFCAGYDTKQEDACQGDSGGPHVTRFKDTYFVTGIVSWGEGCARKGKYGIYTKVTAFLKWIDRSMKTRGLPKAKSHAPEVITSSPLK
Chain of human factor Xa (P00742 41-179 partner limits assumed): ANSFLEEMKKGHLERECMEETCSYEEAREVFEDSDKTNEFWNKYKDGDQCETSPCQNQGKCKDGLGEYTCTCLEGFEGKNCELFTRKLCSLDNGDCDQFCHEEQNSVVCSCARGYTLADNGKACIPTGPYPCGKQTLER
For COC(=O)c1ccc2c(c1)c(C(=O)NC1CCN(C(C)C)CC1)nn2Cc1cc(-c2ccc(Cl)s2)on1 [Example 1, 1-[5-(5-Chloro-thiophen-2-yl)-isoxazol-3-ylmethyl]-3-(1-isopropyl-piperidin-4-ylcarbamoyl)-1H-indazole-5-carboxylic acid methyl ester], the Ki was 79 nM. Work on COC(=O)c1ccc2c(C(=O)NC3CCN(C(C)C)CC3)nn(Cc3cc(-c4ccc(Cl)s4)on3)c2c1 [Example 2, 1-[5-(5-Chloro-thiophen-2-yl)-isoxazol-3-ylmethyl]-3-(1-isopropyl-piperidin-4-ylcarbamoyl)-1H-indazole-6-carboxylic acid methyl ester] yielded a Ki of 35 nM. With COC(=O)c1cccc2c(C(=O)NC3CCN(C(C)C)CC3)nn(Cc3cc(-c4ccc(Cl)s4)on3)c12 [Example 3, 1-[5-(5-Chloro-thiophen-2-yl)-isoxazol-3-ylmethyl]-3-(1-isopropyl-piperidin-4-ylcarbamoyl)-1H-indazole-7-carboxylic acid methyl ester] the Ki was 17 nM. CC(C)N1CCC(NC(=O)c2nn(Cc3cc(-c4ccc(Cl)s4)on3)c3ccc(C(=O)O)cc23)CC1 [Example 4, 1-[5-(5-Chloro-thiophen-2-yl)-isoxazol-3-ylmethyl]-3-(1-isopropyl-piperidin-4-ylcarbamoyl)-1H-indazole-5-carboxylic acid] showed a Ki of 18 nM. CC(C)N1CCC(NC(=O)c2nn(Cc3cc(-c4ccc(Cl)s4)on3)c3cc(C(=O)O)ccc23)CC1 [Example 6, 1-[5-(5-Chloro-thiophen-2-yl)-isoxazol-3-ylmethyl]-3-(1-isopropyl-piperidin-4-ylcarbamoyl)-1H-indazole-6-carboxylic acid] was tested, and the Ki was 212 nM. In the case of CC(C)N1CCC(NC(=O)c2nn(CC(=O)Nc3ccc(Cl)cn3)c3ccccc23)CC1 [Example 7], the Ki is reported as 86 nM. With CC(C)N1CCC(NC(=O)c2nn(Cc3cc(-c4ccc(Cl)s4)on3)c3ccccc23)CC1 [Example 8, 1-[5-(5-Chloro-thiophen-2-yl)-isoxazol-3-ylmethyl]-1H-indazole-3-carboxylic acid (1-isopropyl-piperidin-4-yl)-amide] the Ki was 6 nM. In the case of CCOC(=O)OC(C)OC(=O)c1ccc2c(c1)c(C(=O)NC1CCN(C(C)C)CC1)nn2Cc1cc(-c2ccc(Cl)s2)on1 (stereo not drawn) [Example 9, 1-[5-(5-Chloro-thiophen-2-yl)-isoxazol-3-ylmethyl]-3-(1-isopropyl-piperidin-4-ylcarbamoyl)-1H-indazole-5-carboxylic acid 1-ethoxycarbonyloxy-ethyl ester], the Ki is reported as 82 nM. CC(C)N1CCC(NC(=O)c2nn(Cc3cc(-c4ccc(Cl)s4)on3)c3cccc(C#N)c23)CC1 [Example 10, 1-[5-(5-Chloro-thiophen-2-yl)-isoxazol-3-ylmethyl]-4-cyano-1H-indazole-3-carboxylic acid (1-isopropyl-piperidin-4-yl)-amide] was tested, and the Ki was 9 nM. For CC(C)N1CCC(NC(=O)c2nn(Cc3cc(-c4ccc(Cl)s4)on3)c3cccc(-c4noc(=O)[nH]4)c23)CC1 [Example 11, 1-[5-(5-Chloro-thiophen-2-yl)-isoxazol-3-ylmethyl]-4-(5-oxo-4,5-dihydro-[1,2,4]oxadiazol-3-yl)-1H-indazole-3-carboxylic acid (1-isopropyl-piperidin-4-yl)-amide], the Ki was 7 nM. Work on CC(C)N1CCC(NC(=O)c2nn(Cc3cc(-c4ccc(Cl)s4)on3)c3ccc(C(=O)N4CCC4)cc23)CC1 [Example 12, 5-(Azetidine-1-carbonyl)-1-[5-(5-chloro-thiophen-2-yl)-isoxazol-3-ylmethyl]-1H-indazole-3-carboxylic acid (1-isopropyl-piperidin-4-yl)-amide] yielded a Ki of 5 nM. With CC(C)N1CCC(NC(=O)c2nn(Cc3cc(-c4ccc(Cl)s4)on3)c3ccc(C(=O)NCCS(C)(=O)=O)cc23)CC1 [Example 13, 1-[5-(5-Chloro-thiophen-2-yl)-isoxazol-3-ylmethyl]-1H-indazole-3,5-dicarboxylic acid 3-[(1-isopropyl-piperidin-4-yl)-amide]5-[(2-methanesulfonyl-ethyl)-amide]] the Ki was 40 nM.
